Results taken from patent US11684067B2, “Generation of peroxyformic acid through polyhydric alcohol formate” (priority 2014, dated 2023).
Where two headings read alike, the source gives them in different places.

Tests used:
[1] = test system: Bacillus subtilis ATCC 19659; assay: Sporicidal activity of ester PFA, dirty conditions (Example 20); type: cell-based; conditions: 5 minutes
Text: (§1) Various Bacillus and Aspergillus pathogens were used to evaluate the micro efficacy of ester PFA generated according to methods of the present invention.

[2] = test system: Bacillus subtilis ATCC 6633; assay: as above; type: cell-based; conditions: 5 minutes
Text: as §1

[3] = test system: Aspergillus brasiliensis ATCC 16404; assay: Fungicidal/yeasticidal activity of ester PFA versus POAA (Example 22); type: cell-based; conditions: for Average CFU/mL / Log10 Growth / Log10 Reduction: 20°C, dirty
Text: (§2) Canidia and Aspergillus pathogens were used to evaluate the micro efficacy of ester PFA generated according to methods of the present invention in comparison to POAA.

[4] = test system: Candida albicans ATCC 10231; assay: as above; type: cell-based; conditions: for Average CFU/mL / Log10 Growth / Log10 Reduction: 20°C, dirty
Text: as §2

[5] = test system: Enterococcus hirae ATCC 10541; assay: Bactericidal activity of ester PFA versus POAA, EN 1276, dirty conditions; type: cell-based; conditions: 20°C
Text: (§3) Additional Staphylococcus, Enterococcus and Pseudomonas pathogens were used to evaluate the micro efficacy of ester PFA generated according to methods of the present invention in comparison to POAA.

[6] = test system: Pseudomonas aeruginosa ATCC 15442; assay: as above; type: cell-based; conditions: 20°C
Text: as §3

[7] = test system: Staphylococcus aureus ATCC 6538; assay: as above; type: cell-based; conditions: 20°C
Text: as §3

Various pathogens = type: cell-based
[8] = Laundry disinfection efficacy, EPA protocol on 100% cotton carriers (Table 38); type: cell-based; conditions: pH 7.7, 500 ppm hard water; for Log survivors (CFU/carrier) / Log reduction: 18 ppm, 40° C., 5 minute exposure; for Log survivors (CFU/carrier): cotton carriers; for Log reduction: vs water control
Procedure: The microbial efficacy of peroxyformic acid was also tested following the EPA protocol on 100% cotton carriers against a water control. The test conditions were pH 7.7, 500 ppm hard water, 40° C. and 5 minute exposure time. In comparison, the performance of peracetic acid was also tested under the same conditions.

[9] = Stability of PFA in use solution in the presence of soils, iodometric titration; type: physicochemical; conditions: 500 ppm PFA in 500 ppm hard water with soil load, ambient; FIG. 22
Procedure: To 200 g of 500 ppm hard water containing individual soil load at the desired concentration, was added PFA stock solution to target PFA concentration of 500 ppm. The resulting solution was stored under ambient conditions, and the level of PFA was monitored by iodometric titration at the specific time point.

[10] = 200 ppm PFA pH 6.15 / 245 ppm POAA pH 6.56, 5 minutes
[11] = 200 ppm PFA pH 6.15 / 245 ppm POAA pH 6.56, 10 minutes
[12] = 200 ppm PFA pH 6.15 / 245 ppm POAA pH 6.56, 15 minutes
[13] = 300 ppm PFA pH 6.21 / 368 ppm POAA pH 6.63, 5 minutes
[14] = 300 ppm PFA pH 6.21 / 368 ppm POAA pH 6.63, 10 minutes
[15] = 20 ppm PFA pH 6.61 / 24.8 ppm POAA pH 6.73, 5 minutes
[16] = 30 ppm PFA pH 6.74 / 37.6 ppm POAA pH 6.90, 5 minutes
[17] = 50 ppm PFA pH 6.60 / 62.4 ppm POAA pH 6.98, 5 minutes
[18] = Klebsiella pneumoniae ATCC 4352
[19] = Staphylococcus aureus ATCC 6538

Compound: O=COO [PFA, peroxyformic acid]
- Log10 Growth ([1]; 200 ppm PFA pH 5.81, 35°C): <2.18 Log10
- Log10 Reduction ([1]; 200 ppm PFA pH 5.81, 35°C): >3.87 Log10
- Log10 Growth ([1]; 250 ppm PFA pH 5.82, 35°C): <2.18 Log10
- Log10 Reduction ([1]; 250 ppm PFA pH 5.82, 35°C): >3.87 Log10
- Log10 Growth ([1]; 300 ppm PFA pH 5.91, 35°C): <2.18 Log10
- Log10 Reduction ([1]; 300 ppm PFA pH 5.91, 35°C): >3.87 Log10
- Log10 Growth ([1]; 350 ppm PFA pH 5.88, 35°C): <2.18 Log10
- Log10 Reduction ([1]; 350 ppm PFA pH 5.88, 35°C): >3.87 Log10
- Log10 Growth ([2]; 200 ppm PFA pH 5.81, 35°C): <2.18 Log10
- Log10 Reduction ([2]; 200 ppm PFA pH 5.81, 35°C): >3.91 Log10
- Log10 Growth ([2]; 250 ppm PFA pH 5.82, 35°C): <2.18 Log10
- Log10 Reduction ([2]; 250 ppm PFA pH 5.82, 35°C): >3.91 Log10
- Log10 Growth ([2]; 300 ppm PFA pH 5.91, 35°C): <2.18 Log10
- Log10 Reduction ([2]; 300 ppm PFA pH 5.91, 35°C): >3.91 Log10
- Log10 Growth ([2]; 350 ppm PFA pH 5.88, 35°C): <2.18 Log10
- Log10 Reduction ([2]; 350 ppm PFA pH 5.88, 35°C): >3.91 Log10
- reduction in A. brasiliensis conidio spores compared with POAA ([3]; 5, 10 and 15 minutes, lower actives, FIG. 19): improved reduction
- Average CFU/mL [3, 10]: 1.60E+04 CFU/mL
- Log10 Growth [3, 10]: 4.20 Log10
- Log10 Reduction [3, 10]: 1.54 Log10
- Average CFU/mL [3, 11]: 1.75E+03 CFU/mL
- Log10 Growth [3, 11]: 3.24 Log10
- Log10 Reduction [3, 11]: 2.50 Log10
- Average CFU/mL [3, 12]: 3.85E+02 CFU/mL
- Log10 Growth [3, 12]: 2.59 Log10
- Log10 Reduction [3, 12]: 3.16 Log10
- Average CFU/mL [3, 13]: 4.10E+02 CFU/mL
- Log10 Growth [3, 13]: 2.61 Log10
- Log10 Reduction [3, 13]: 3.13 Log10
- Average CFU/mL [3, 14]: 1.20E+02 CFU/mL
- Log10 Growth [3, 14]: 2.08 Log10
- Log10 Reduction [3, 14]: 3.67 Log10
- reduction in C. albicans compared with POAA ([4]; 5, 10 and 15 minutes, lower actives, FIG. 18): equivalent reduction
- Average CFU/mL [4, 10]: <140 CFU/mL
- Log10 Growth [4, 10]: <2.15 Log10
- Log10 Reduction [4, 10]: >4.14 Log10
- Average CFU/mL [4, 11]: <140 CFU/mL
- Log10 Growth [4, 11]: <2.15 Log10
- Log10 Reduction [4, 11]: >4.14 Log10
- Average CFU/mL [4, 12]: <140 CFU/mL
- Log10 Growth [4, 12]: <2.15 Log10
- Log10 Reduction [4, 12]: >4.14 Log10
- Average CFU/mL [4, 13]: <140 CFU/mL
- Log10 Growth [4, 13]: <2.15 Log10
- Log10 Reduction [4, 13]: >4.14 Log10
- Average CFU/mL [4, 14]: <140 CFU/mL
- Log10 Growth [4, 14]: <2.15 Log10
- Log10 Reduction [4, 14]: >4.14 Log10
- Average CFU/mL [5, 15]: 6.30E + 03 CFU/mL
- Log10 Growth [5, 15]: 3.80 Log10
- Average CFU/mL [5, 16]: 2.15E + 02 CFU/mL
- Log10 Growth [5, 16]: 2.33 Log10
- Average CFU/mL [5, 17]: <140 CFU/mL
- Log10 Growth [5, 17]: <2.15 Log10
- Average CFU/mL [6, 15]: <140 CFU/mL
- Log10 Growth [6, 15]: <2.15 Log10
- Average CFU/mL [6, 16]: <140 CFU/mL
- Log10 Growth [6, 16]: <2.15 Log10
- Average CFU/mL [6, 17]: <140 CFU/mL
- Log10 Growth [6, 17]: <2.15 Log10
- Average CFU/mL [7, 15]: <140 CFU/mL
- Log10 Growth [7, 15]: <2.15 Log10
- Average CFU/mL [7, 16]: <140 CFU/mL
- Log10 Growth [7, 16]: <2.15 Log10
- Average CFU/mL [7, 17]: <140 CFU/mL
- Log10 Growth [7, 17]: <2.15 Log10
- Result (Various pathogens; EN 13624, 450 ppm PFA pH 6-7, Aspergillus brasiliensis ATCC 1604, passing requirement 4 log reduction): PASS
- Result (Various pathogens; EN 13624, 450 ppm PFA pH 6-7, Canidia albicans ATCC 10231, passing requirement 4 log reduction): PASS
- Result (Various pathogens; EN 13704, 450 ppm PFA pH 6-7, Bacillus subtilis ATCC 6633, passing requirement 3 log reduction): PASS
- Result (Various pathogens; EN 13727, 450 ppm PFA pH 6-7, Enterococcus hirae ATCC 10541, passing requirement 5 log reduction): PASS
- Result (Various pathogens; EN 13727, 450 ppm PFA pH 6-7, P. aeruginosa ATCC 15442, passing requirement 5 log reduction): PASS
- Result (Various pathogens; EN 13727, 450 ppm PFA pH 6-7, Staph Aureus ATCC 6538, passing requirement 5 log reduction): PASS
- Result (Various pathogens; pH 6): PASS
- Log survivors (CFU/carrier) [8, 18]: <1.00 log10 CFU/carrier
- Log reduction [8, 18]: >5.12
- Log survivors (CFU/carrier) [8, 19]: 1.63 log10 CFU/carrier
- Log reduction [8, 19]: 5.22
- kill compared with peracetic acid ([8]; 40°C, 5 minute, less than half of the dose of peracetic acid): significant better kill than peracetic acid
- impact of soils on the stability of PFA [9]: no impact
